Reference: US20230047788A1, “COMPOSITIONS COMPRISING 5-CHOLESTEN-3, 25-DIOL, 3-SULFATE (25HC3S) OR PHARMACEUTICALLY ACCEPTABLE SALT THEREOF AND AT LEAST ONE CYCLIC OLIGOSACCHARIDE” (Virginia Commonwealth University, priority 2016, published 2023)
“And” between values parts separate entries of the source, which are not always exact repeats. Identical values can stand only once.

Test: Infusion compatibility of constituted 25HC3S solution with 5% dextrose, 0.9% sodium chloride and two infusion sets
Format: physicochemical
Details: for Osmolality / pH / % Remaining Compared to T = 0 / Concentration / T = 0 Conc.: 5% dextrose bag
Protocol: After constitution with Vehicle, the 30 mg/mL 25HC3S product was diluted into 100 mL of 5% dextrose injection, USP or 0.9% sodium chloride injection, USP, and was administered to subjects as an IV infusion ranging from a 30 mg to 150 mg 25HC3S dose. This was accomplished by adding 1.0 mL (for the 30 mg dose) or 5.0 mL (for the 150 mg dose), or any volume in between, of the 30 mg/mL 25HC3S product into a 100 mL dextrose or sodium chloride infusion bag. The entire admixture content in the infusion bag was infused into the subject over approximately 2 hours at a rate of 50 mL/hour.
A physical and chemical compatibility study was conducted at a 30 mg, 48 mg and 300 mg 25HC3S dose in 5% dextrose and 0.9% sodium chloride infusion bags. Descriptions of the two kinds of infusion sets tested with 25HC3S product diluted in 5% dextrose and 0.9% sodium chloride are listed in Table 15. The tubing in catalog number 2H8480 infusion set was composed of polyvinylchloride (PVC), while the tubing in catalog number 2C8858 was polyethylene lined except for a short pump segment (approximately 12 inches) which was composed of PVC.
25HC3S for Injection and Vehicle for 25HC3S for Injection, that had been stored at 2-8° C. for approximately 16 months, were used for the compatibility study. After constitution, 30 mg (1.0 mL of constituted product), 48 mg (1.6 mL of constituted product) or 300 mg (10 mL of constituted product) were added to 100 mL infusion bags of 5% dextrose and 0.9% sodium chloride, mixed thoroughly, and stored for 24 hours at room temperature and at 2-8° C. […] Taking into consideration the overfill per infusion bag and the additional volume introduced by adding the constituted 25HC3S product to each bag, the expected concentrations of 25HC3S were 0.28 mg/mL, 0.44 mg/mL, and 2.56 mg/mL in the infusion bags. Two kinds of infusion sets were then attached to the drug containing infusion bags, and the entire contents were eluted through the infusion sets at approximately 50 mL/hour at room temperature. Samples were collected from the 25HC3S prepared infusion bags at T=0 and at 24 hours, and from the total eluent passed through the infusion sets, and tested for 25HC3S concentration using HPLC. Solution visual appearance, osmolality (using method USP<785>), and pH (using method USP<791>) were also measured on the collected samples.

[1] = 5% dextrose, ~0.28 mg/mL, 24 h 2-8°C then Baxter 2C8858
[2] = 5% dextrose, ~0.28 mg/mL, 24 h 2-8°C then Baxter 2H8480
[3] = 5% dextrose, ~0.28 mg/mL, 24 h RT then Baxter 2C8858
[4] = 5% dextrose, ~0.28 mg/mL, 24 h RT then Baxter 2H8480
[5] = 5% dextrose, ~0.44 mg/mL, 24 h 2-8°C then Baxter 2C8858
[6] = 5% dextrose, ~0.44 mg/mL, 24 h 2-8°C then Baxter 2H8480
[7] = 5% dextrose, ~0.44 mg/mL, 24 h RT then Baxter 2C8858
[8] = 5% dextrose, ~0.44 mg/mL, 24 h RT then Baxter 2H8480
[9] = 5% dextrose, ~2.56 mg/mL, 24 h 2-8°C then Baxter 2C8858
[10] = 5% dextrose, ~2.56 mg/mL, 24 h 2-8°C then Baxter 2H8480
[11] = 5% dextrose, ~2.56 mg/mL, 24 h RT then Baxter 2C8858
[12] = 5% dextrose, ~2.56 mg/mL, 24 h RT then Baxter 2H8480

For `C[C@H](CCCC(C)(C)O)[C@H]1CC[C@H]2[C@@H]3CC=C4C[C@@H](OS(=O)(=O)[O-])CC[C@]4(C)[C@H]3CC[C@]12C.[Na+]` [25HC3S, 5-cholesten-3, 25-diol, 3-sulfate], the Osmolality (~0.28 mg/mL, 24 Hours at 2-8°C) was 250 mmol/kg and 253 mmol/kg, the pH (~0.28 mg/mL, 24 Hours at 2-8°C) was 7.09 and 7.04 and the “% Remaining Compared to T = 0” value (~0.28 mg/mL, 24 Hours at RT) was “(100.0%)”. For the same compound, the Concentration (~0.28 mg/mL, 24 Hours at RT) was 276 µg/mL and 277 µg/mL, the Osmolality (~0.28 mg/mL, 24 Hours at RT) was 252 mmol/kg and 249 mmol/kg and the pH (~0.28 mg/mL, 24 Hours at RT) was 7.12 and 7.05. For the same compound, the Osmolality (~0.28 mg/mL, T = 0) was 247 mmol/kg and 250 mmol/kg and 251 mmol/kg, the “T = 0 Conc.” value (~0.28 mg/mL, T = 0) was 0.276 mg/mL and 0.277 mg/mL and 0.280 mg/mL and 0.279 mg/mL and the pH (~0.28 mg/mL, T = 0) was 7.09 and 7.03 and 7.10 and 7.04. For the same compound, the Concentration (~0.44 mg/mL, 24 Hours at 2-8°C) was 438 µg/mL and 440 µg/mL, the Osmolality (~0.44 mg/mL, 24 Hours at 2-8°C) was 254 mmol/kg and 257 mmol/kg and the pH (~0.44 mg/mL, 24 Hours at 2-8°C) was 6.96 and 6.93. The “% Remaining Compared to T = 0” value (~0.44 mg/mL, 24 Hours at RT) was “(100.0%)”, the Concentration (~0.44 mg/mL, 24 Hours at RT) was 447 µg/mL and 442 µg/mL and the Osmolality (~0.44 mg/mL, 24 Hours at RT) was 256 mmol/kg and 253 mmol/kg. The pH (~0.44 mg/mL, 24 Hours at RT) was 6.91 and 6.90, the Osmolality (~0.44 mg/mL, T = 0) was 255 mmol/kg and 254 mmol/kg and 256 mmol/kg and the “T = 0 Conc.” value (~0.44 mg/mL, T = 0) was 0.447 mg/mL and 0.442 mg/mL and 0.439 mg/mL. The pH (~0.44 mg/mL, T = 0) was 6.83 and 6.81 and 6.82 and 6.88, the Concentration (~2.56 mg/mL, 24 Hours at 2-8°C) was 2550 µg/mL and 2530 µg/mL and the Osmolality (~2.56 mg/mL, 24 Hours at 2-8°C) was 246 mmol/kg and 251 mmol/kg. For the same compound, the pH (~2.56 mg/mL, 24 Hours at 2-8°C) was 6.11 and 6.14, the Concentration (~2.56 mg/mL, 24 Hours at RT) was 2470 µg/mL and 2520 µg/mL and the Osmolality (~2.56 mg/mL, 24 Hours at RT) was 257 mmol/kg and 250 mmol/kg. For the same compound, the pH (~2.56 mg/mL, 24 Hours at RT) was 6.12 and 6.06, the Osmolality (~2.56 mg/mL, T = 0) was 258 mmol/kg and 247 mmol/kg and the “T = 0 Conc.” value (~2.56 mg/mL, T = 0) was 2.500 mg/mL and 2.510 mg/mL and 2.530 mg/mL and 2.525 mg/mL. The pH (~2.56 mg/mL, T = 0) was 6.04 and 6.12 and 6.29 and 6.26, the “deviation of concentrations from initial T=0 time point” value (5% dextrose, 24 hours at RT and 2-8°C and after elution through infusion sets) was no more than 1.4% and the “% Remaining after infusion set” value [1] was “(100.4%)”. For the same compound, the “Concentration after infusion set” value [1] was 280 µg/mL, the “Osmolality after infusion set” value [1] was 252 mmol/kg and the “pH after infusion set” value [1] was 6.99. For the same compound, the “% Remaining after infusion set” value [2] was “(100.0%)”, the “Concentration after infusion set” value [2] was 280 µg/mL and the “Osmolality after infusion set” value [2] was 251 mmol/kg. For the same compound, the “pH after infusion set” value [2] was 6.95, the “% Remaining after infusion set” value [3] was “(100.0%)” and the “Concentration after infusion set” value [3] was 277 µg/mL. For the same compound, the “Osmolality after infusion set” value [3] was 252 mmol/kg, the “pH after infusion set” value [3] was 7.04 and the “% Remaining after infusion set” value [4] was “(100.0%)”. For the same compound, the “Concentration after infusion set” value [4] was 276 µg/mL, the “Osmolality after infusion set” value [4] was 252 mmol/kg and the “pH after infusion set” value [4] was 6.99. For the same compound, the “% Remaining after infusion set” value [5] was “(100.2%)”, the “Concentration after infusion set” value [5] was 440 µg/mL and the “Osmolality after infusion set” value [5] was 255 mmol/kg. For the same compound, the “pH after infusion set” value [5] was 6.93, the “% Remaining after infusion set” value [6] was “(100.2%)” and the “Concentration after infusion set” value [6] was 440 µg/mL. For the same compound, the “Osmolality after infusion set” value [6] was 257 mmol/kg, the “pH after infusion set” value [6] was 6.91 and the “% Remaining after infusion set” value [7] was “(100.0%)”. For the same compound, the “Concentration after infusion set” value [7] was 442 µg/mL, the “Osmolality after infusion set” value [7] was 253 mmol/kg and the “pH after infusion set” value [7] was 6.90. For the same compound, the “% Remaining after infusion set” value [8] was “(100.2%)”, the “Concentration after infusion set” value [8] was 448 µg/mL and the “Osmolality after infusion set” value [8] was 253 mmol/kg. For the same compound, the “pH after infusion set” value [8] was 6.91, the “% Remaining after infusion set” value [9] was “(100.4%)” and the “Concentration after infusion set” value [9] was 2535 µg/mL. For the same compound, the “Osmolality after infusion set” value [9] was 248 mmol/kg, the “pH after infusion set” value [9] was 6.10 and the “% Remaining after infusion set” value [10] was “(100.4%)”. For the same compound, the “Concentration after infusion set” value [10] was 2540 µg/mL, the “Osmolality after infusion set” value [10] was 247 mmol/kg and the “pH after infusion set” value [10] was 5.99. For the same compound, the “% Remaining after infusion set” value [11] was “(101.4%)”, the “Concentration after infusion set” value [11] was 2545 µg/mL and the “Osmolality after infusion set” value [11] was 251 mmol/kg. For the same compound, the “pH after infusion set” value [11] was 6.00, the “% Remaining after infusion set” value [12] was “(99.2%)” and the “Concentration after infusion set” value [12] was 2480 µg/mL. For the same compound, the “Osmolality after infusion set” value [12] was 261 mmol/kg, the “pH after infusion set” value [12] was 6.01 and the solution appearance (dextrose and sodium chloride, all three concentrations, after 24 hours in bags and after elution) was “clear and colorless solutions”. The “decrease of pH over 24 hours in the infusion bags” value (sodium chloride, approximately 0.28 mg/mL 25HC3S) was roughly 0.5 pH unit.
